Assay results: patent publication US4157399A, “Benzo(B)thiophenes” (Parcor, priority 1976, dated 1979)
Where a name gives a salt, the structure may show the parent alone.

What was measured:
Format in all cases: in vivo
[1] = test system: fatty infiltrations of the liver; experiment: Rabbit autopsy, mark for fatty infiltrations of the liver; conditions: mark of 0 to 3; end of test (75 days); 100 mg/Kg orally
Procedure: (§1) The animals divided into several batches of 15 animals are fed with feedstuff enriched in cholesterol (1%). Batch A serves as control and is not treated, the other batches also receive the derivatives to be tested at a dose of 100 mg/Kg, administered orally, suspended in aqueous solution of gum arabic at 5%. On the first day of experimentation and then every 15 days for 75 days biological examinations are conducted on all the animals, during which the various elements causing dyslipemia are dosed; total cholesterol (T), esterified cholesterol (E), free cholesterol (L), esterification ratio (E/T), Kunkel-Phenol test (K1), Kunkelphenol test (K2), Burstein dextrane test (B) and serum lipids (LS).
(§2) At the end of the test all the animals are killed and an autopsy is carried out; a macroscopic examination is then conducted on the livers and aortas and a mark of 0 to 3 is given to the amount of fatty infiltrations of the liver and 0 to 4 to the intensity of aortic atheromatous lesions.

[2] = Propylthiouracil test, free and total cholesterol in the rat; conditions: 11th day; propylthiouracil-treated rats; oral 100 mg/Kg
Procedure: Experiments were carried out according to the propylthiouracil test (RANNEY & Coll., J. PHARMACOL. EXPER. THERAP. 1963, 142, 132-136). The propyl-thiouracil administered to adult rats has the property of making them hypercholesterolemic: the plasma level of cholesterol increases by approximately 15% under these conditions. Experiments are conducted on various batches of rats, the control batch receiving only propylthiouracil and the other treated batches also receiving the composition of the invention at an oral dose of 100 mg/Kg.
On the 11th day of experimentation blood samples are taken and the free cholesterol and total cholesterol is dosed.

[3] = test system: aortic atheromatous lesions; experiment: Rabbit autopsy, mark for aortic atheromatous lesions; conditions: mark of 0 to 4; end of test (75 days); 100 mg/Kg orally
Procedure: as §1, §2

[4] = Rabbit fed cholesterol-enriched (1%) feedstuff, dosage of elements causing dyslipemia; design: total cholesterol (T) / esterified cholesterol (E) / Kunkelphenol test (K2) / Burstein dextrane test (B) / serum lipids (LS): unit not given here; conditions: 100 mg/Kg orally
Procedure: as §1

## CCN(CC)c1c(-c2ccc(Cl)cc2)sc2ccccc12 [derivative 37, Hydrochloride of 2-(4-chlorophenyl)-3-diethylamino-benzo(b)thiophene]
[1]
  fatty infiltrations of the liver: 1,00
[2]
  Free cholesterol: 0,13 g/l
  Total cholesterol: 0,58 g/l
[3]
  aortic atheromatons lesions: 1,3
[4]; 1st day
  Burstein dextrane test (B): 10,5
  Kunkel-Phenol test (K1): 8,2
  Kunkelphenol test (K2): 12,9
  esterification ratio (E/T): 0,47
  esterified cholesterol (E): 0,27
  free cholesterol (L): 0,30
  serum lipids (LS): 2,00
  total cholesterol (T): 0,57
[4]; 30th day
  Burstein dextrane test (B): 21,3
  Kunkel-Phenol test (K1): 18,8
  Kunkelphenol test (K2): 25,1
  esterification ratio (E/T): 0,62
  esterified cholesterol (E): 0,97
  free cholesterol (L): 0,58
  serum lipids (LS): 2,85
  total cholesterol (T): 1,55
[4]; 75th day
  Burstein dextrane test (B): 35,7
  Kunkel-Phenol test (K1): 32,8
  Kunkelphenol test (K2): 46,7
  esterification ratio (E/T): 0,61
  esterified cholesterol (E): 1,80
  free cholesterol (L): 1,14
  serum lipids (LS): 4,15
  total cholesterol (T): 2,94
